Experimental data reported in publication PMC11338949, “E41K mutation activates Bruton’s tyrosine kinase by stabilizing an inositol hexakisphosphate-dependent invisible dimer” (The Journal of Biological Chemistry, 2024).

Target: T1, full-length BTK^E41K (Mus musculus, UniProt P35991, E41K)
T1 construct: The full-length BTK was cloned into the pET28-SUMO vector; His-SUMO (N, cleaved yes); made in house; host or cells: E. coli BL21-DE3, co-transformed with YopH and Trigger factor
Experiment: Autophosphorylation assay by immunoblot (Y551) of purified full-length BTK
Assay type: biochemical
Conditions: 2 μM BTK, 100 μM ligand, compared to unliganded state
Method: The activation of full-length BTK in response to the ligand was determined from the autophosphorylation Y551 or total phosphotyrosine level. Before each reaction, 2 μM BTK was incubated with 100 μM ligand for 10 min. The phosphorylation reaction was performed at 25 °C in a buffer containing 25 mM Tris-Cl (pH 7.5), 2 mM ATP, 10 mM MgCl2, and 1 mM Na3VO4. The reaction was quenched with SDS–PAGE loading buffer. The autophosphorylation levels of full-length BTK were detected by immunoblot ([22]). The amount of BTK loaded was determined using an anti-BTK antibody. Densitometric analysis of immunoblots was performed using Fiji software ([52]).

T1 sequence (P35991 whole entry E41K): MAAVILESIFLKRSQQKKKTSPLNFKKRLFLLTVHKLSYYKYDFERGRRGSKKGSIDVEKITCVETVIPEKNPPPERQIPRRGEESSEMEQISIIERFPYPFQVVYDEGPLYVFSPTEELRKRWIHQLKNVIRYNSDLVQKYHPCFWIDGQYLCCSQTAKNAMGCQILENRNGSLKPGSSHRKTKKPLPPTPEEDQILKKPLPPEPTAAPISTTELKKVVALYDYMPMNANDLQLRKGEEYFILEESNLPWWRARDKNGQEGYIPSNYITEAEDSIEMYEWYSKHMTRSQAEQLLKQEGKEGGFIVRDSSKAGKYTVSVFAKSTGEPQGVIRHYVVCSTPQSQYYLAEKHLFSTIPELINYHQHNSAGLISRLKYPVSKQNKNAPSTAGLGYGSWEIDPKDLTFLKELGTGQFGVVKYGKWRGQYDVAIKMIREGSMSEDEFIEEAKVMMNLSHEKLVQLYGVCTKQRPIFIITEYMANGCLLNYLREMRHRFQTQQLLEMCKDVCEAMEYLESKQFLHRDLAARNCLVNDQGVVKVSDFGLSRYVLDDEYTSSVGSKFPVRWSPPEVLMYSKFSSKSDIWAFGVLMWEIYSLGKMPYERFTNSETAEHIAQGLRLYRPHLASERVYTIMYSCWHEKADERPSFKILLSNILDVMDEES

| SMILES | Y551 phosphorylation of BTK^E41K |
| --- | --- |
| O=P(O)(O)O[C@@H]1[C@H](O)[C@H](O)[C@@H](OP(=O)(O)O)[C@H](OP(=O)(O)O)[C@H]1O [IP3] | does not induce |
| O=P(O)(O)OC1C(OP(=O)(O)O)C(OP(=O)(O)O)C(OP(=O)(O)O)C(OP(=O)(O)O)C1OP(=O)(O)O (centres unmarked) [IP6, inositol hexakisphosphate] | significantly increases |
